# System: 12 cancer cell lines: LCL (H460/lung), MACL (MCF7, breast), LXFL (529L, lung), LXFA (629L, lung), MEXF (462NL, melanoma), MEXF (514L, melanoma), MAXF (401NL …)
# Assay: Biological activity against 12 cancer cell lines (IC70 averaged over all cell lines)
# Assay type: cell-based
# Conditions: mean over 12 cancer cell lines; 5 test concentrations
# Method: Biological Activity Against 12 Cancer Cell Lines: LCL (H460/lung), MACL (MCF7, breast), LXFL ([…], lung), LXFA ([…], lung), MEXF (462NL, melanoma), MEXF ([…], melanoma), MAXF (401NL, breast), RXF ([…], renal), RXF ([…], renal), UXF ([…], uterus), […]1). Efficacy (IC70), averaged over all cell lines in μg/ml with 5 test concentrations.
row,Compound,"Efficacy (IC70), averaged over all cell lines [µg/mL]"
1,"C/C=C/C=C/c1cc2cc3c(c(O)c2c(=O)[nH]1)[C@@]1(C(=O)c2c(O)c4c(c(O)c2C1=O)C(=O)C(OC)=CC4=O)C(SCCO)C3 (stereo partly drawn) [Example 3, (8S)-4′,9,9′-trihydroxy-6′-methoxy-7(2-hydroxyethylmercapto)-3-[(1E,3E)-penta-1,3-dienyl]-6,7-dihydrospiro[cyclopenta[g]isoquinoline-8,2′-cyclopenta[b]-napthalene]-1,1′-3′,5′,8′(2H)-pentone]",0.1340
2,COc1cccc2c1C(=O)c1c(O)c3c(c(O)c1C2=O)C[C@@](O)(C(=O)CO)C[C@@H]3O[C@H]1C[C@H](N)[C@H](O)[C@H](C)O1 [Adriamycin],0.0210
3,C/C=C/C=C/c1cc2cc3c(c(O)c2c(=O)[nH]1)C1(CC3)C(=O)c2c(O)c3c(c(O)c2C1=O)C(=O)C(OC)=CC3=O (stereo not shown) [Fredericamycin],0.2790
4,N.N.[Cl][Pt][Cl] [Cisplatin],37.1020

# Reference: patent US7244741B2, “Fredericamycin derivatives as medicaments for treating tumours” (Biofrontera Discovery GmbH, priority 2002, dated 2007)
